This passage reports EC50 results from US7820837B2, “Condensed ring compound” (Takeda Pharmaceutical Company Limited, priority 2003, dated 2010).

The experiment concerns the target T1, human GPR40 (Homo sapiens, UniProt O14842).
T1 construct: expressed in transfected cells
Put plainly: Determination of EC50 on human GPR40 (intracellular calcium change by FLIPR in CHO cells stably expressing human GPR40). The format is cell-based. To be noted: CHO cell line stably expressing human GPR40; changes in intracellular calcium concentration measured by FLIPR (Fluo3-AM); read-out: EC50 (Receptor Function Modulating Action on GPR40). How it is done: Determination of EC50 of the Compound of Example on Human GPR40
For determination of EC50, CHO cell line that stably expressed human GPR40 was used. Unless otherwise indicated, the CHO cell line was cultured using α-MEM medium (Invitrogen) containing 10% fetal calf serum (Invitrogen).
The cells cultured to nearly confluent were rinsed with PBS (Invitrogen) on the previous day of the assay, peeled off with 0.05% Trypsin•EDTA solution (Invitrogen) and recovered by centrifugation. The number of the obtained cells was counted, and the cells were diluted such that 3×10^5 cells were contained per 1 mL of the medium, dispensed to a Black welled 96-well plate (coster) by 100 μL per well and cultured overnight in a CO2 incubator. Various test samples were added to the CHO cells thus prepared, and the changes in the intracellular calcium concentration were measured using FLIPR (Molecular Device). The below-mentioned pre-treatment was applied to measure changes in the intracellular calcium concentration by FLIPR.
An assay buffer for adding a fluorescence dye Fluo3-AM (DOJIN) to the cells, or for washing the cells immediately before FLIPR assay was prepared. To a solution of 1M HEPES (pH 7.4, DOJIN, 20 mL) added to HBSS (Invitrogen, 1000 mL) (hereinafter HBSS/HEPES solution) was added a solution (10 mL) obtained by dissolving probenecid (Sigma, 710 mg) in 1N NaOH (5 mL), and adding and mixing an HBSS/HEPES solution (5 mL), and the resulting solution was used as an assay buffer. Fluo3-AM (50 μg) was dissolved in dimethyl sulfoxide (Wako, 21 μL), and an equivalent amount of 20% pluronic acid (Molecular Probes) was added and mixed. The solution was added to the assay buffer (10.6 mL) supplemented with fetal calf serum (105 μL) to give a fluorescence dye solution. On the previous day of assay, the medium of the CHO cells newly inoculated to the Black welled 96-well plate was removed, the fluorescence dye solution was immediately dispensed by 100 μL per well and the cells were cultured in a CO2 incubator for 1 hr to allow intake of the fluorescence dye by the cells. The cells after the culture were washed with the above-mentioned assay buffer and set on FLIPR. The test sample was diluted with DMSO in advance, dispensed to polypropylene 96-well plate (sample plate) by 2 μL, and cryopreserved at −20° C. To the thawed sample plate was added an assay buffer containing 0.015% CHAPS (DOJIN) by 198 μL, and simultaneously set on FLIPR together with the cell plate. After the aforementioned pre-treatment, changes in the intracellular calcium concentration upon addition of various test samples were measured by FLIPR.
On the technique in general: A change in cytosolic calcium serves as a functional read-out for many receptors and channels.

Molecules are shown by their SMILES.

T1 sequence (O14842 whole entry): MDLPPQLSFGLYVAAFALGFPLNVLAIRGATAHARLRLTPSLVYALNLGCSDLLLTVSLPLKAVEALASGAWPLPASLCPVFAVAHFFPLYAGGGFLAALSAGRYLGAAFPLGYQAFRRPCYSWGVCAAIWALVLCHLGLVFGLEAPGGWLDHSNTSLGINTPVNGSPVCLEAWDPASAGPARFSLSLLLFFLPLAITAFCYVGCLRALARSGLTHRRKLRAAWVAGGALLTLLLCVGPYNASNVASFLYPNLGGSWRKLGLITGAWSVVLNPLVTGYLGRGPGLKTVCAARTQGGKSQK

For the compound `Cc1cccc(C)c1-c1cccc(COc2ccc3c(c2)CCCCC3CC(=O)O)c1` (stereo not drawn) [Example 25, {2-[(2′,6′-dimethylbiphenyl-3-yl)methoxy]-6,7,8,9-tetrahydro-5H-benzo[7]annulen-5-yl}acetic acid], the half-maximal effective concentration (EC50) is less than 1000 nM.

For the compound `C/C(=C\COc1ccc2c(c1)OCC2CC(=O)O)c1ccc2c(c1)CCCC2` (stereo not drawn) [Example 125, (6-{[(2E)-3-(5,6,7,8-tetrahydro-2-naphthalenyl)-2-buten-1-yl]oxy}-2,3-dihydro-1-benzofuran-3-yl)acetic acid], the EC50 is less than 1000 nM.

Regarding `O=C(O)CC1CCc2cc(OCc3cccc(Oc4ccccc4)c3)ccc21` (stereo not drawn) [Example 15, {5-[(3-phenoxybenzyl)oxy]-2,3-dihydro-1H-inden-1-yl}acetic acid], the EC50 was less than 100 nM.

For the compound `CCCCOCCOc1ccc(-c2cccc(COc3ccc4c(c3)OCC4CC(=O)O)c2)c(C)c1` (stereo not drawn) [Example 58, (6-{[4′-(2-butoxyethoxy)-2′-methylbiphenyl-3-yl]methoxy}-2,3-dihydro-1-benzofuran-3-yl)acetic acid], the EC50 was less than 100 nM.

Consider `Cc1cccc(C)c1-c1cccc(COc2ccc3c(c2)OCCC(C(=O)O)C3)c1` (stereo not drawn) [Example 13, 8-[(2′,6′-dimethylbiphenyl-3-yl)methoxy]-2,3,4,5-tetrahydro-1-benzoxepine-4-carboxylic acid], for which the half-maximal effective concentration (EC50) was less than 100 nM.

Regarding `Cc1cccc(C)c1-c1cccc(COc2ccc3c(c2)CCC3CC(=O)O)c1` (stereo not drawn) [Example 17, {5-[(2′,6′-dimethylbiphenyl-3-yl)methoxy]-2,3-dihydro-1H-inden-1-yl}acetic acid], the EC50 is less than 100 nM.

On to `Cc1cccc(C)c1-c1cccc(COc2ccc3c(c2)OCC3CC(=O)O)c1` (stereo not drawn) [Example 33, {6-[(2′,6′-dimethylbiphenyl-3-yl)methoxy]-2,3-dihydro-1-benzofuran-3-yl}acetic acid], for which the EC50 was less than 100 nM.

Consider `O=C(O)CC1CCCc2nc(SCc3cccc(Oc4ccccc4)c3)sc21` (stereo not drawn) [Example 78, {2-[(3-phenoxybenzyl)thio]-4,5,6,7-tetrahydro-1,3-benzothiazol-7-yl}acetic acid], for which the EC50 was less than 100 nM.

On to `O=C(O)CC1COc2cc(OCc3ccc(CN(CCc4ccccc4)c4nc(-c5ccccc5)cs4)cc3)ccc21` (stereo not drawn) [Example 73, calcium {6-[(4-{[(2-phenylethyl)(4-phenyl-1,3-thiazol-2-yl)amino]methyl}benzyl)oxy]-2,3-dihydro-1-benzofuran-3-yl}acetate], for which the EC50 is less than 1000 nM.

For `Cc1ccc2ccccc2c1-c1cccc(COc2ccc3c(c2)OCC3CC(=O)O)c1` (stereo not drawn) [Example 47, (6-{[3-(2-methyl-1-naphthyl)benzyl]oxy}-2,3-dihydro-1-benzofuran-3-yl)acetic acid], the EC50 was less than 100 nM.

With `Cc1cc(OCc2ccccc2)cc(C)c1-c1cccc(COc2ccc3c(c2)OCC3CC(=O)O)c1` (stereo not drawn) [Example 70, (6-{[4′-(benzyloxy)-2′,6′-dimethylbiphenyl-3-yl]methoxy}-2,3-dihydro-1-benzofuran-3-yl)acetic acid], the EC50 is less than 100 nM.

With `Cc1cccc(C)c1-c1cccc(COc2ccc3c(c2)CCCC3CC(=O)O)c1` (stereo not drawn) [Example 11, {6-[(2′,6′-dimethylbiphenyl-3-yl)methoxy]-1,2,3,4-tetrahydronaphthalen-1-yl}acetic acid], the EC50 is less than 100 nM.

Regarding `Cc1cccc(C)c1-c1cc(COc2ccc3c(c2)OCC3CC(=O)O)ccc1OCc1ccccc1` (stereo not drawn) [Example 75, (6-{[6-(benzyloxy)-2′,6′-dimethylbiphenyl-3-yl]methoxy}-2,3-dihydro-1-benzofuran-3-yl)acetic acid], the EC50 is less than 100 nM.

On to `CCCN(Cc1ccc(COc2ccc3c(c2)OCCC(C(=O)O)C3)cc1)c1nc(-c2ccccc2)cs1` (stereo not drawn) [Example 21, 8-[(4-{[(4-phenyl-1,3-thiazol-2-yl)(propyl)amino]methyl}benzyl)oxy]-2,3,4,5-tetrahydro-1-benzoxepine-4-carboxylic acid], for which the EC50 is less than 1000 nM.

For the compound `O=C(O)CC1CCCc2cc(OCc3cccc(Oc4ccccc4)c3)ccc21` (stereo not drawn) [Example 6, (6-((3-phenoxybenzyl)oxy)-1,2,3,4-tetrahydro-1-naphthalenyl)acetic acid], the EC50 was less than 100 nM.

On to `CCCN(Cc1ccc(COc2ccc3c(c2)OCC3CC(=O)O)cc1)c1nc(-c2ccccc2)cs1` (stereo not drawn) [Example 35, {6-[(4-{[(4-phenyl-1,3-thiazol-2-yl)(propyl)amino]methyl}benzyl)oxy]-2,3-dihydro-1-benzofuran-3-yl}acetic acid], for which the EC50 was less than 100 nM.

For the compound `O=C(O)CC1COc2cc(OCc3ccc(Cn4c(-c5ccccc5)cc5ccccc54)cc3)ccc21` (stereo not drawn) [Example 66, [6-({4-[(2-phenyl-1H-indol-1-yl)methyl]benzyl}oxy)-2,3-dihydro-1-benzofuran-3-yl]acetic acid], the EC50 was less than 100 nM.

Take `CCCN(Cc1ccc(COc2ccc3c(c2)CCCC3CC(=O)O)cc1)c1nc(-c2ccccc2)cs1` (stereo not drawn) [Example 19, {6-[(4-{[(4-phenyl-1,3-thiazol-2-yl)(propyl)amino]methyl}benzyl)oxy]-1,2,3,4-tetrahydronaphthalen-1-yl}acetic acid]: the EC50 was less than 1000 nM.

For orientation: EC50 means the concentration that produces a half-maximal response.
